Columns and labels:
[1] = log P by HPLC (OECD Guideline 117), method [a] acidic range; type: physicochemical; settings: for chromatographic logP: reversed-phase C18 HPLC column; for logP[a]: method [a] acidic range
Experimental: (§1) The log P values were determined analogously to OECD Guideline 117 (EC Directive 92/69/EEC) by HPLC (high-performance liquid chromatography) using reversed-phase columns (C 18), by the following methods:
[a] The LC-MS determination in the acidic range is effected at pH 2.7 with 0.1% aqueous formic acid and acetonitrile (contains 0.1% formic acid) as eluents; linear gradient from 10% acetonitrile to 95% acetonitrile.

[2] = tested on: Tetranychus urticae; test: Tetranychus urticae spray test, OP-resistant (TETRUR); type: in vivo; settings: after 6 days; for pest or weed control at 500 g/ha: Tetranychus urticae, 144 h, read-out: efficacy
Outline: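 Bean leaf discs infested with all stages of an OP-resistant Tetranychus urticae strain sprayed with compound in acetone/DMF with alkylaryl polyglycol ether emulsifier, diluted in water. Efficacy in % scored after 6 days; 100% means all mites killed.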

[3] = log P by HPLC (OECD Guideline 117), method [b] neutral range; type: physicochemical; settings: for chromatographic logP: reversed-phase C18 HPLC column; for logP[b]: method [b] neutral range
Experimental: as §1
[b] The LC-MS determination in the neutral range is effected at pH 7.8 with 0.001 molar aqueous ammonium hydrogencarbonate solution and acetonitrile as eluents; linear gradient from 10% acetonitrile to 95% acetonitrile.

[4] = pH 2.7, HPLC method [a], acidic range, read-out: logP[a]
[5] = pH 2.7, HPLC, acidic range, pH 2.7, read-out: log P[a]

SMILES	logP[a] ([1]; HPLC)	efficacy ([2]; application rate of 500 g/ha)	logP[b] ([3]; HPLC)	also measured
Cc1cc(F)c(-n2nnn(-c3ccc(Cl)cc3)c2=O)cc1[S+]([O-])CC(F)(F)F (stereo not shown) [Example 307, 1-(4-Chlorophenyl)-4-{2-fluoro-4-methyl-5-[(2,2,2-trifluoroethyl)sulphinyl]phenyl}-1,4-dihydro-5H-tetrazol-5-one]	–	–	–	chromatographic logP [1, 4]: 3.53; chromatographic logP [1, 5]: 3.53; pest or weed control at 500 g/ha ([2]; application rate of 500 g/ha): 100%; chromatographic logP ([3]; HPLC, neutral range, pH 7.8): 3.49
COC1=CC(=O)N(c2cc(SCC(F)(F)F)c(C)cc2F)C1 [Example 310, 1-{2-Fluoro-4-methyl-5-[(2,2,2-trifluoroethyl)sulphanyl]phenyl}-4-methoxy-1,5-dihydro-2H-pyrrol-2-one]	–	–	–	chromatographic logP [1, 4]: 2.87; chromatographic logP [1, 5]: 2.87; pest or weed control at 500 g/ha ([2]; application rate of 500 g/ha): 100%; chromatographic logP ([3]; HPLC, neutral range, pH 7.8): 2.81
COC1=CC(=O)N(c2cc(SCC(F)(F)F)c(C)cc2C)C1 [Example 312]	2.88	90%	2.81	–
COC1=CC(=O)N(c2ccc(C)c(SCC(F)(F)F)c2)C1 [Example 316]	2.98	90%	2.95	–
COC1=CC(=O)N(c2cc([S+]([O-])CC(F)(F)F)c(C)cc2Cl)C1 (stereo not shown) [Example 318]	1.99	90%	1.94	–
COC1=CC(=O)N(c2cc([S+]([O-])CC(F)(F)F)c(Cl)cc2F)C1 (stereo not shown) [Example 324]	2.13	100%	2.11	–
Cc1cc(F)c(N2CC(OC(C)C)=CC2=O)cc1[S+]([O-])CC(F)(F)F (stereo not shown) [Example 325]	2.46	100%	2.43	–
CCCCOC1=CC(=O)N(c2cc([S+]([O-])CC(F)(F)F)c(C)cc2F)C1 (stereo not shown) [Example 326]	2.91	90%	2.88	–
COC1=CC(=O)N(c2cc(SCC(F)(F)F)c(Cl)cc2F)C1 [Example 327]	2.97	90%	2.92	–
CCOC1=CC(=O)N(c2cc([S+]([O-])CC(F)(F)F)c(C)cc2F)C1 (stereo not shown) [Example 334]	2.19	–	2.14	efficacy ([2]; application rate of 20 g/ha): 90%
COCCOC1=CC(=O)N(c2cc([S+]([O-])CC(F)(F)F)c(C)cc2F)C1 (stereo not shown) [Example 335]	1.92	90%	1.86	–
Cc1cc(F)c(N2C(=O)C=C(Br)C2=O)cc1SCC(F)(F)F [Example 337]	3.91	90%	3.50	–
Cc1cc(F)c(N2C(=O)C(Cl)=C(Cl)C2=O)cc1SCC(F)(F)F [Example 338]	3.99	90%	4.00	–
CC1=C(C)C(=O)N(c2cc(SCC(F)(F)F)c(C)cc2F)C1=O [Example 339, 1-{2-Fluoro-4-methyl-5-[(2,2,2-trifluoroethyl)sulphanyl]phenyl}-3,4-dimethyl-1H-pyrrole-2,5-dione]	–	–	–	chromatographic logP [1, 4]: 3.6; chromatographic logP [1, 5]: 3.6; pest or weed control at 500 g/ha ([2]; application rate of 500 g/ha): 90%; chromatographic logP ([3]; HPLC, neutral range, pH 7.8): 3.61
CC1=CC(=O)N(c2cc(SCC(F)(F)F)c(C)cc2F)C1=O [Example 340]	3.37	90%	3.39	–
CC1=C(C)C(=O)N(c2cc([S+]([O-])CC(F)(F)F)c(C)cc2F)C1=O (stereo not shown) [Example 341]	2.52	90%	2.49	–
CC1=C(C)C(=O)N(c2cc(SCC(F)(F)F)c(C)cc2C)C1=O [Example 342]	3.73	90%	3.70	log P[a] ([1]; HPLC, acidic range, pH 2.7): 2.07; log P[b] ([3]; HPLC, neutral range, pH 7.8): 3.67
Cc1cc(F)c(-n2c(C)c(C)sc2=NCC(F)(F)F)cc1SCC(F)(F)F [Example 343, 2,2,2-Trifluoro-N-[3-{2-fluoro-4-methyl-5-[(2,2,2-trifluoroethyl)sulphanyl]phenyl}-4,5-dimethyl-1,3-thiazol-2(3H)-ylidene]ethanamine]	–	–	–	chromatographic logP [1, 4]: 3.02; chromatographic logP [1, 5]: 3.02; pest or weed control at 500 g/ha ([2]; application rate of 500 g/ha): 100%; chromatographic logP ([3]; HPLC, neutral range, pH 7.8): 4.91
Cc1cc(F)c(-n2c(C)c(C)sc2=NCC(F)(F)F)cc1[S+]([O-])CC(F)(F)F (stereo not shown) [Example 344]	–	–	–	chromatographic logP [1, 4]: 2.17; pest or weed control at 500 g/ha ([2]; application rate of 500 g/ha): 100%; chromatographic logP ([3]; pH 7.8, HPLC method [b], neutral range): 3.68
C=CCn1c(C(F)(F)F)nn(-c2cc(SCC(F)(F)F)c(C)cc2F)c1=O [Example 345]	4.02	100%	4.04	–
Cc1cc(F)c(-n2nc(C3CC3)n(C)c2=O)cc1SCC(F)(F)F [Example 346]	2.97	90%	2.92	–
Cc1cc(F)c(-n2nc(C3CC3)n(C(C)C)c2=O)cc1SCC(F)(F)F [Example 347]	3.70	100%	3.63	–

SMILES	logP[a] ([1]; HPLC)	efficacy ([2]; application rate of 500 g/ha)	logP[b] ([3]; HPLC)	also measured
CCc1nn(-c2cc(SCC(F)(F)F)c(C)cc2F)c(=O)n1-c1cccnc1 [Example 348]	2.91	90%	2.87	–
Cc1cc(F)c(-n2nc(C3CCCC3)n(C3CC3)c2=O)cc1SCC(F)(F)F [Example 358, 5-Cyclopentyl-4-cyclopropyl-2-{2-fluoro-4-methyl-5-[(2,2,2-trifluoroethyl)sulphanyl]phenyl}-2,4-dihydro-3H-1,2,4-triazol-3-one]	–	–	–	chromatographic logP [1, 4]: 4.18; chromatographic logP [1, 5]: 4.18; pest or weed control at 500 g/ha ([2]; application rate of 500 g/ha): 100%; chromatographic logP ([3]; HPLC, neutral range, pH 7.8): 4.2
Cc1cc(F)c(-n2nc(CCOC(C)C)n(C3CC3)c2=O)cc1SCC(F)(F)F [Example 359]	3.63	100%	3.66	–
Cc1cc(F)c(-n2nc(C3CCCC3)n(C3CC3)c2=O)cc1[S+]([O-])CC(F)(F)F (stereo not shown) [Example 360]	3.06	90%	3.03	–
Cc1cc(F)c(-n2nc(C3CCCCC3)n(C3CC3)c2=O)cc1[S+]([O-])CC(F)(F)F (stereo not shown) [Example 361]	3.34	100%	3.31	–
Cc1cc(F)c(-n2nc(CCOC(C)C)n(C3CC3)c2=O)cc1[S+]([O-])CC(F)(F)F (stereo not shown) [Example 362]	2.63	90%	2.61	–
Cc1cc(F)c(-n2nc(C(F)(F)F)n(C(C)C)c2=O)cc1[S+]([O-])CC(F)(F)F (stereo not shown) [Example 363]	3.22	100%	3.18	–
C=CCn1c(C(F)(F)F)nn(-c2cc([S+]([O-])CC(F)(F)F)c(C)cc2F)c1=O (stereo not shown) [Example 364]	3.00	90%	2.96	–
CCCCn1c(C(F)(F)F)nn(-c2cc([S+]([O-])CC(F)(F)F)c(C)cc2F)c1=O (stereo not shown) [Example 365]	3.61	100%	3.54	–
COc1ccccc1-c1nn(-c2cc(SCC(F)(F)F)c(C)cc2F)c(=O)n1C1CC1 [Example 366]	3.77	100%	3.71	–
Cc1cc(F)c(-n2ncn(C(C)(C)C)c2=O)cc1SCC(F)(F)F [Example 367]	3.27	100%	3.23	–
Cc1cc(F)c(-n2ncn(Cc3ccccc3)c2=O)cc1SCC(F)(F)F [Example 368]	3.38	100%	3.34	–
Cc1cc(F)c(-n2ncn(C(C)(C)C)c2=O)cc1[S+]([O-])CC(F)(F)F (stereo not shown) [Example 369]	2.21	100%	2.16	–
Cc1cc(F)c(-n2ncn(Cc3ccccc3)c2=O)cc1[S+]([O-])CC(F)(F)F (stereo not shown) [Example 370]	2.35	100%	2.36	–
Cc1cc(C)c(-n2ncn(C(C)(C)C)c2=O)cc1SCC(F)(F)F [Example 371]	3.46	100%	3.39	–
Cc1cc(C)c([S+]([O-])CC(F)(F)F)cc1-n1ncn(C(C)(C)C)c1=O (stereo not shown) [Example 372]	2.34	100%	2.28	–
Cc1cc(C)c([S+]([O-])CC(F)(F)F)cc1-n1ncn(Cc2ccccc2)c1=O (stereo not shown) [Example 374]	2.50	90%	2.47	–
C=CCOc1nn(-c2cc(SCC(F)(F)F)c(C)cc2F)c(=O)n1C1CC1 [Example 375]	3.74	100%	3.70	–
Cc1cc(C)c(-n2nc(OCC(F)(F)F)n(C3CC3)c2=O)cc1SCC(F)(F)F [Example 377]	4.01	100%	3.92	–
O=c1n(-c2ccc(Br)c(SCC(F)(F)F)c2)nc(OCC(F)(F)F)n1C1CC1 [Example 378]	4.43	90%	4.48	–
Cc1cc(F)c(-n2nc(OCC(C)(C)C)n(C3CC3)c2=O)cc1SCC(F)(F)F [Example 386]	4.77	100%	4.71	–

Source: patent US9981940B2, “Aryl sulfide derivatives and aryl sulfoxide derivatives as acaricides and insecticides” (BAYER CROPSCIENCE AKTIENGESELLSCHAFT, priority 2013, dated 2018)
